US9611503B2, “Escherichia coli cell line with thyA knockout and folA knockout” (priority 2011, dated 2017)

Columns and labels:
[1] = biological target: DHFR-TS from Plasmodium malariae (wildtype) (Plasmodium malariae, UniProt A0A1D3JLL1); assay: In vitro biochemical enzyme inhibition assay, purified DHFR-TS; conditions: purified P. malariae wildtype DHFR-TS
[2] = system: E. coli thyA folA KO + Tg mt; assay: microbe, parasite or virus in culture; assay type: cell-based; conditions: Escherichia coli; host expressing Toxoplasma gondii double mutant DHFR-TS; 6 hours, OD 600 nm
[3] = system: E. coli thyA folA KO + Tg wt; assay: microbe, parasite or virus in culture; assay type: cell-based; conditions: Escherichia coli; host expressing Toxoplasma gondii wildtype DHFR-TS; 6 hours, OD 600 nm
[4] = system: E. coli thyA folA KO + Lm wt; assay: microbe, parasite or virus in culture; assay type: cell-based; conditions: Escherichia coli; host expressing Leishmania major DHFR-TS; 6 hours, OD 600 nm
[5] = system: E. coli thyA folA KO + Pv mt; assay: microbe, parasite or virus in culture; assay type: cell-based; conditions: Escherichia coli; host expressing P. vivax sp21 double mutant DHFR-TS; 6 hours, OD 600 nm
[6] = system: E. coli thyA folA KO + Pf TM4; assay: microbe, parasite or virus in culture; assay type: cell-based; conditions: Escherichia coli; host expressing P. falciparum TM4 DHFR-TS; minimal media with ampicillin, 37 degrees Celsius, 6 hours, OD 600 nm
[7] = system: E. coli thyA folA KO + Tb wt; assay: microbe, parasite or virus in culture; assay type: cell-based; conditions: Escherichia coli, 6 h
[8] = system: E. coli thyA folA KO + Pm wt; assay: microbe, parasite or virus in culture; assay type: cell-based; conditions: Escherichia coli; host expressing P. malariae wildtype DHFR-TS; 6 hours, OD 600 nm
[9] = system: E. coli thyA folA KO + Pv wt; assay: microbe, parasite or virus in culture; assay type: cell-based; conditions: Escherichia coli; host expressing P. vivax wildtype DHFR-TS; 6 hours, OD 600 nm
[10] = system: E. coli thyA folA KO + Pf K1; assay: microbe, parasite or virus in culture; assay type: cell-based; conditions: Escherichia coli; host expressing P. falciparum K1 DHFR-TS; minimal media with ampicillin, 37 degrees Celsius, 6 hours, OD 600 nm

DHFR-TS from Plasmodium malariae (wildtype), sequence (A0A1D3JLL1 entry or part of it): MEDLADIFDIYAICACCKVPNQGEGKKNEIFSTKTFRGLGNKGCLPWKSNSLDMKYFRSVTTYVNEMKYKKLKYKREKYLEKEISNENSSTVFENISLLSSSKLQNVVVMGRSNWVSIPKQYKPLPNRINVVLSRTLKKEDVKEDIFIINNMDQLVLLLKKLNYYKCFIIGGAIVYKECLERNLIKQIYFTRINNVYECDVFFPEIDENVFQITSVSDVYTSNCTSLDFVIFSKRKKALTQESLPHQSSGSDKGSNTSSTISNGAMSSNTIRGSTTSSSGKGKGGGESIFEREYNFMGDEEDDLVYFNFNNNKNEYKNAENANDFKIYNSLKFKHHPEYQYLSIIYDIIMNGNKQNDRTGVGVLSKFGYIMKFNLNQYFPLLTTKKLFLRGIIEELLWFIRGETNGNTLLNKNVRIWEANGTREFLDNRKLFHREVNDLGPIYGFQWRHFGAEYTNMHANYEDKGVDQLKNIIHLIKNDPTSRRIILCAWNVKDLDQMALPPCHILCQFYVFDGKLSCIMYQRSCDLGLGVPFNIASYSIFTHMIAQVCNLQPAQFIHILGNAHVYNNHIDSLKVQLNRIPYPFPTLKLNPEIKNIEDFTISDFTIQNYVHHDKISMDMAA

SMILES: CCc1nc(N)nc(N)c1-c1ccc(Cl)cc1 [Pyrimethamine]
- Ki [1]: 0.00054 ± 6e-05 µM
- IC50 [2]: > 100 µM
- IC50 [3]: > 100 µM
- IC50 [4]: > 100 µM
- IC50 [5]: > 100 µM
- IC50 [6]: 0.07 ± 0.01 µM
- IC50 [7]: > 100 µM
- IC50 [8]: 0.77 ± 0.22 µM
- IC50 [9]: 3.08 ± 0.33 µM
- IC50 [10]: 31.93 ± 0.16 µM
